Results taken from publication PMC12477080, “Polychlorinated biphenyls (PCBs) interact with drug metabolism in vivo” (Archives of Toxicology, 2025).

Assay: Stability of substrates and metabolites in quality control samples (benchtop, autosampler, freeze-thaw)
Assay type: physicochemical
Settings: for Autosampler stability (24 h) Av. Accuracy (%): 10° C for 24 hours in the autosampler; for 3x freeze-thaw Av. Accuracy (%): after three freeze-thaw cycles; for Benchtop stability (19 h) Ac. Accuracy (%): room temperature for 19 hours
Source text: The method was validated for intra- and interday accuracy and precision, stability, and matrix effects. […] Validation details are provided in Supplementary Tables 5–7 and supplemental Fig. 3. Glucuronidase/sulfatase digests were used to isolate CYP-specific metabolic activities, reducing interference from polymorphic UDP-glucuronosyltransferase (UGT) and sulfotransferase isoforms.
Supplemental table 6: Stability of the substrates and metabolites. Quality control samples were left at room temperature for 19 hours (benchtop stability) and at 10° C for 24 hours in the autosampler (autosampler stability) or were measured after three freeze-thaw cycles. Stability samples were measured against a freshly prepared set of calibrators and quality control samples.

SMILES	Autosampler stability (24 h) Av. Accuracy (%) (QC conc. 0,5 ng/ml)	3x freeze-thaw Av. Accuracy (%) (QC conc. 0,5 ng/ml)	Benchtop stability (19 h) Ac. Accuracy (%) (QC conc. 0,5 ng/ml)	Autosampler stability (24 h) Av. Accuracy (%) (QC conc. 0,25 ng/ml)	3x freeze-thaw Av. Accuracy (%) (QC conc. 0,25 ng/ml)	Benchtop stability (19 h) Ac. Accuracy (%) (QC conc. 0,25 ng/ml)	Autosampler stability (24 h) Av. Accuracy (%) (QC conc. 60 ng/ml)	3x freeze-thaw Av. Accuracy (%) (QC conc. 60 ng/ml)	Benchtop stability (19 h) Ac. Accuracy (%) (QC conc. 60 ng/ml)	Autosampler stability (24 h) Av. Accuracy (%) (QC conc. 150 ng/ml)	3x freeze-thaw Av. Accuracy (%) (QC conc. 150 ng/ml)	Benchtop stability (19 h) Ac. Accuracy (%) (QC conc. 150 ng/ml)	Autosampler stability (24 h) Av. Accuracy (%) (QC conc. 1,5 ng/ml)	3x freeze-thaw Av. Accuracy (%) (QC conc. 1,5 ng/ml)	Benchtop stability (19 h) Ac. Accuracy (%) (QC conc. 1,5 ng/ml)	3x freeze-thaw Av. Accuracy (%) (QC conc. 10 ng/ml)	3x freeze-thaw Av. Accuracy (%) (QC conc. 30 ng/ml)	3x freeze-thaw Av. Accuracy (%) (QC conc. 1200 ng/ml)	3x freeze-thaw Av. Accuracy (%) (QC conc. 3000 ng/ml)	other results
COCCc1ccc(OCC(O)CNC(C)C)cc1 (stereo not shown) [metoprolol, reference compound]	105,36%	109,56%	106,29%	105,01%	99,7%	92,77%	111,39%	105,26%	110,41%	100,37%	98,84%	102,76%	112,83%	103,63%	111,4%	–	–	–	–	–
Cn1c(=O)c2c(ncn2C)n(C)c1=O [caffeine, reference compound]	–	–	–	–	–	–	–	–	–	–	–	–	–	–	–	107,62%	107,18%	105,12%	97,54%	–
O=C1Nc2c(O)cc(Cl)cc2[C@@](C#CC2CC2)(C(F)(F)F)O1 [8-OH-efavirenz]	86,73%	84,9%	74,06%	86,81%	84,61%	69,5%	86,15%	79,98%	77,52%	78,85%	77,49%	74,14%	88,49%	79,73%	76,61%	–	–	–	–	–
Cc1cccc(Nc2ccncc2S(=O)(=O)NC(=O)NC(C)C)c1 [torsemide, reference compound]	–	–	–	–	–	–	–	–	–	–	–	–	–	–	–	–	–	–	–	Autosampler stability (24 h) Av. Accuracy (%) (QC conc. 1 ng/ml): 105,13%; 3x freeze-thaw Av. Accuracy (%) (QC conc. 1 ng/ml): 102,74%; Benchtop stability (19 h) Ac. Accuracy (%) (QC conc. 1 ng/ml): 97,46%; Autosampler stability (24 h) Av. Accuracy (%) (QC conc. 2 ng/ml): 108,32%; 3x freeze-thaw Av. Accuracy (%) (QC conc. 2 ng/ml): 105,85%; Benchtop stability (19 h) Ac. Accuracy (%) (QC conc. 2 ng/ml): 107,17%; Autosampler stability (24 h) Av. Accuracy (%) (QC conc. 6 ng/ml): 108,92%; 3x freeze-thaw Av. Accuracy (%) (QC conc. 6 ng/ml): 106,12%; Benchtop stability (19 h) Ac. Accuracy (%) (QC conc. 6 ng/ml): 107,51%; Autosampler stability (24 h) Av. Accuracy (%) (QC conc. 240 ng/ml): 109,92%; 3x freeze-thaw Av. Accuracy (%) (QC conc. 240 ng/ml): 103,96%; Benchtop stability (19 h) Ac. Accuracy (%) (QC conc. 240 ng/ml): 108,15%; Autosampler stability (24 h) Av. Accuracy (%) (QC conc. 600 ng/ml): 97,91%; 3x freeze-thaw Av. Accuracy (%) (QC conc. 600 ng/ml): 96,67%; Benchtop stability (19 h) Ac. Accuracy (%) (QC conc. 600 ng/ml): 99,27%
Cn1c(=O)[nH]c2ncn(C)c2c1=O [Paraxanthine]	–	–	–	–	–	–	–	–	–	–	–	–	–	–	–	96,57%	103,75%	100,61%	92,32%	Autosampler stability (24 h) Av. Accuracy (%) (QC conc. 10 ng/ml): 96,28%; Benchtop stability (19 h) Ac. Accuracy (%) (QC conc. 10 ng/ml): 89,99%; Autosampler stability (24 h) Av. Accuracy (%) (QC conc. 30 ng/ml): 105,74%; Benchtop stability (19 h) Ac. Accuracy (%) (QC conc. 30 ng/ml): 105,38%; Autosampler stability (24 h) Av. Accuracy (%) (QC conc. 1200 ng/ml): 105,06%; Benchtop stability (19 h) Ac. Accuracy (%) (QC conc. 1200 ng/ml): 103,5%; Autosampler stability (24 h) Av. Accuracy (%) (QC conc. 3000 ng/ml): 93,91%; Benchtop stability (19 h) Ac. Accuracy (%) (QC conc. 3000 ng/ml): 94,2%
